Laboratory results: patent EP2197279B1, “C10-SUBSTITUTED CAMPTOTHECIN ANALOGS” (BIONUMERIK PHARMACEUTICALS, INC., priority 2007, dated 2009)
Like-named read-outs stand apart in the source and are kept apart here.

Key:
[1] = cited from earlier work; for Non-Hematologic Toxicity No. of Patients With: Cystitis / Non-Hematologic Toxicity No. of Patients With: Diarrhea: 5-day Course; for Number of Patients with Non-Hematologic Toxicity: Cystitis / Number of Patients with Non-Hematologic Toxicity: Diarrhea: Single-Dose Method
[2] = test system: advanced gastrointestinal cancer; conditions: cited from earlier work
[3] = eight patients with measurable disease, 5-day courses at dose levels associated with toxicity; cited from earlier work
[4] = test system: advanced malignant melanoma; conditions: fifteen patients, 90-360 mg/m^2 repeated every 2 weeks; cited from earlier work
human plasma proteins = test: Percent of free camptothecin analogs in human plasma (dialysis, HPLC); assay type: in vitro ADME; conditions: 100 nM Compound Concentrations
Protocol: Stocks of various camptothecin analogs were prepared in DMSO. […] Optimum HPLC detection conditions for each camptothecin analog were developed using traditional HPLC methods. Table VIII. Percent of Free Camptothecin Analogs in Human Plasma (100 nM Compound Concentrations)

[5] = test system: panel of over 20 human cancer cell lines; test: In vitro studies on a panel of human cancer cell lines; assay type: cell-based; conditions: compared with Topotecan or SN-38
[6] = 15 mg/m^2 X 5, 9 patients treated
[7] = 17 mg/m^2 X 5, 5 patients treated
[8] = 20 mg/m^2 X 5, 10 patients treated
[9] = 5-Day Course (27 Patients Total), 4 wks
[10] = 5-Day Course (27 Patients Total), 8 wks
[11] = 5-Day Course (27 Patients Total), 12 wks
[12] = Single-Dose Method (34 Patients Total), 3 wks
[13] = Single-Dose Method (34 Patients Total), 6 wks
[14] = Single-Dose Method (34 Patients Total), 9 wks
[15] = Single-Dose Method (34 Patients Total), 12 wks

In the case of CC[C@@]1(O)C(=O)OCc2c1cc1n(c2=O)Cc2cc3ccccc3nc2-1 [CPT sodium], the Cystitis ([1]; 5-Day Course (P<0.05)) is listed as 48 (P<0.05) % of 27 Patients, the “Non-Hematologic Toxicity No. of Patients With: Cystitis” value ([1]; 11 mg/m^2 X 5, 2 patients treated) is listed as 1 and the “Non-Hematologic Toxicity No. of Patients With: Cystitis” value [1, 6] is listed as 4. For the same compound, the “Non-Hematologic Toxicity No. of Patients With: Diarrhea” value [1, 6] was 1, the “Non-Hematologic Toxicity No. of Patients With: Cystitis” value [1, 7] was 2 and the “Non-Hematologic Toxicity No. of Patients With: Diarrhea” value [1, 7] was 4. The “Non-Hematologic Toxicity No. of Patients With: Cystitis” value [1, 8] was 6, the “Non-Hematologic Toxicity No. of Patients With: Diarrhea” value [1, 8] was 4 and the “Non-Hematologic Toxicity No. of Patients With: Diarrhea” value ([1]; 22 mg/m^2 X 5, 1 patient treated) was 1. For the same compound, the Cystitis ([1]; Single Dose) was 24 % of 34 Patients, the “Number of Patients with Non-Hematologic Toxicity: Cystitis” value ([1]; 100 mg/m^2, 6 patients treated) was 2 and the “Number of Patients with Non-Hematologic Toxicity: Cystitis” value ([1]; 110 mg/m^2, 2 patients treated) was 1. For the same compound, the “Number of Patients with Non-Hematologic Toxicity: Diarrhea” value ([1]; 110 mg/m^2, 2 patients treated) was 1, the “Number of Patients with Non-Hematologic Toxicity: Cystitis” value ([1]; 120 mg/m^2, 7 patients treated) was 2 and the “Number of Patients with Non-Hematologic Toxicity: Diarrhea” value ([1]; 120 mg/m^2, 7 patients treated) was 4. For the same compound, the “Number of Patients with Non-Hematologic Toxicity: Cystitis” value ([1]; 180 mg/m^2, 9 patients treated) was 3, the “Number of Patients with Non-Hematologic Toxicity: Diarrhea” value ([1]; 180 mg/m^2, 9 patients treated) was 2 and the “Objective Results: Improved” value [2, 9] was 1. For the same compound, the “Objective Results: Stable” value [2, 9] was 12, the “Objective Results: Worse” value [2, 9] was 14 and the “Objective Results: Stable” value [2, 10] was 7. For the same compound, the “Objective Results: Worse” value [2, 10] was 20, the “Objective Results: Stable” value [2, 11] was 6 and the “Objective Results: Worse” value [2, 11] was 21. For the same compound, the “Objective Results: Improved” value ([2]; Single-Dose Method (34 Patients Total), 3 wks after start of therapy) was 4, the “Objective Results: Stable” value [2, 12] was 17 and the “Objective Results: Worse” value [2, 12] was 13. The “Objective Results: Improved” value [2, 13] was 2, the “Objective Results: Stable” value [2, 13] was 11 and the “Objective Results: Worse” value [2, 13] was 21. For the same compound, the “Objective Results: Improved” value [2, 14] was 2, the “Objective Results: Stable” value [2, 14] was 8 and the “Objective Results: Worse” value [2, 14] was 24. For the same compound, the “Objective Results: Stable” value [2, 15] was 6, the “Objective Results: Worse” value [2, 15] was 28 and the “patients with partial objective improvement” value ([2]; after 2 months (8 or 9 weeks), of 61 patients) was “two”. The patients showing improvement ([2]; at 3 months, of 61 patients) was “none”, the “patients showing a 25%-50% response” value ([2]; at 3 wks, only) was “*A total of 3 patients showed a 25%-50% response at 3 wks, only” and the clinical benefit [3] was “No clinical benefit”. The myelosuppression [4] was 11 patients and the “patients with a 50% or greater decrease in tumor diameter” value [4] was “None”.

In the case of CC[C@@]1(O)C(=O)OCc2c1cc1n(c2=O)Cc2c-1nc1ccccc1c2CC[Si](C)(C)C [Karenitecin (BNP1350), (4S)-4-ethyl-4-hydroxy-11-[2-(trimethylsilyl)ethyl]-1H-pyrano[3':4':6,7]indolizino[1,2-b]quinoline-3,14(4H,12H)-dione], the “Percent of Free CPTs” value (human plasma proteins) is reported as 1% and the antitumor potency [5] is reported as “significantly more potent”.
